Source: patent publication US8178506B2, “Oligomeric compounds and compositions for use in modulation of small non-coding RNAs” (Regulus Therapeutics Inc., priority 2003, dated 2012)
In the oligonucleotide strings, read from the 5' end, every base follows the letter of its sugar. An asterisk marks phosphorothioate; unmarked linkages are phosphodiester. Other units and linkages are bracketed, terminal groups are in braces. A string of capitals states the bases alone. e = 2'-O-(2-methoxyethyl) (MOE); [5mC] = 5-methylcytosine; d = 2'-deoxy (DNA)

What was measured:
[1] = test system: IL-6 mRNA; assay: IL-6 mRNA in LPS-activated primary murine macrophages; format: cell-based, mouse; conditions: average of 3 treatments
Summary of the method: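 Thioglycollate-elicited peritoneal macrophages from female C57Bl/6 mice, transfected with miRNA-targeting oligomeric compounds via FuGENE 6 (1 μL per 100 nM compound) for ~24–28 h at 37 °C, optionally primed 4 h with 100 ng/mL IFN-gamma, then stimulated 24 h with 100 ng/mL LPS. IL-6 mRNA quantified by real-time PCR.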

[2] = test system: T47D cells; assay: Caspase-3 activity assay (apoptosis) in T47D cells; conditions: T47D cells, 48 hours
[3] = test system: mir-143 miRNA; assay: Northern blot of mature mir-143 in kidney of ob/ob mice; format: in vivo, mouse; conditions: twice weekly at 25 mg/kg, saline = 100%
Description: In addition, Northern blot analyses were performed to quantitate the expression of mature mir-143 in kidney samples of ob/ob mice treated with oligomeric compounds of the present invention. The mir-143 specific DNA oligonucleotide probe (SEQ ID NO: 319) described above was used to detect expression levels of the mir-143 miRNA in ob/ob mice treated (twice weekly at 25 mg/kg) with ISIS Numbers 327901, the uniform 2′-MOE oligomeric compound, or ISIS Number 340927, the 5-10-7 gapmer compound, both targeted to mir-143, versus saline treated animals or animals treated with ISIS 342672 (SEQ ID NO: 789), a uniform 2′-MOE scrambled negative control oligomeric compound. Expression levels were normalized against the U6 RNA and the expression levels of saline treated animals were set at 100%. […] In kidney samples from mice treated with the gapmer oligomeric compound targeting mir-143, ISIS Number 340927, a 23% reduction in in vivo expression levels of the mature mir-143 miRNA was observed.

Substance	IL-6 mRNA expression, % UTC ([1]; 75 nM, +IFN) [% UTC]	IL-6 mRNA expression, % UTC ([1]; 75 nM, −IFN) [% UTC]	IL-6 mRNA expression, % UTC ([1]; 150 nM, +IFN) [% UTC]	IL-6 mRNA expression, % UTC ([1]; 150 nM, −IFN) [% UTC]	IL-6 mRNA expression, % UTC ([1]; 300 nM, +IFN) [% UTC]	IL-6 mRNA expression, % UTC ([1]; 300 nM, −IFN) [% UTC]	IL-6 mRNA expression, % UTC ([1]; 600 nM, +IFN) [% UTC]	IL-6 mRNA expression, % UTC ([1]; 600 nM, −IFN) [% UTC]	decrease in in vivo expression levels of the mature mir-143 miRNA [3] [%]	further results
327921 (antisense e[5mC]*eT*eT*e[5mC]*e[5mC]*eA*eG*eT*e[5mC]*eG*eG*eG*eG*eA*eT*eG*eT*eT*eT*eA*e[5mC]*eA) [compound 327921]	122	223	144	294	287	522	313	632	–	–
327941 (antisense eA*eA*e[5mC]*e[5mC]*e[5mC]*eA*e[5mC]*e[5mC]*eG*eA*e[5mC]*eA*eG*e[5mC]*eA*eA*eT*eG*eA*eA*eT*eG*eT*eT) [compound 327941]	181	293	197	325	197	271	301	501	–	–
328382 (e[5mC]*eA*eG*eA*e[5mC]*dT*d[5mC]*d[5mC]*d[5mC]*dA*dA*d[5mC]*dT*dG*dA*e[5mC]*e[5mC]*eA*eG*eA) [compound 328382]	–	–	–	–	–	–	–	–	–	Fold Increase over UTC (caspase-3 activity, apoptosis) ([2]; 200 nM oligomeric compound, experiment of Table 10): 0.9 fold
328691 (e[5mC]*e[5mC]*e[5mC]*e[5mC]*eA*dT*d[5mC]*dT*dT*dA*dG*d[5mC]*dA*dT*d[5mC]*eT*eA*eA*eG*eG) [compound 328691]	–	–	–	–	–	–	–	–	–	Fold Increase over UTC (caspase activity) ([2]; 200 nM, relative to untreated control): 0.9
TGAGCTACAGTGCTTCATCTCA [ISIS 327901] (chemistry not given here) [uniform 2′-MOE PS; targets mir-143]	–	–	–	–	–	–	–	–	~40	–
TGAGCTACAGTGCTTCATCTCA [ISIS 340927] (chemistry not given here) [5-10-7 2′-MOE gapmer PS; targets mature mir-143]	–	–	–	–	–	–	–	–	23	–
